For 1 molecule, IC50 results are on record in ChEMBL document CHEMBL5725856, “Substituted N-bicyclo-2-aryl-quinolin-4-carboxamides and use thereof” (2018).

The target of this experiment is Prostaglandin F2-alpha receptor (Homo sapiens, UniProt P43088). As to the kind of experiment: In Vitro Test of Inhibition of Human FP Receptor Activity : For the characterization of test substances in respect of FP antagonism, PGF2α-induced calcium flux in FP-expressing CHEM1 cells (Millipore, HTS093C) was used.3000 cells in 25 μl of full medium [DMEM F12, 10% FCS, 1.35 mM sodium pyruvate, 20 mM HEPES, 4 mM GlutaMAX, 2% sodium bicarbonate, 1% Pen/Strep, 1% 100× non-essential amino acids] are sown per well of a 384 multititer plate (from Greiner, TC plate, black with clear base) and incubated at 37° C./5% CO2 for 24 hours. Prior to the measurement, the medium is replaced by 30 μl of Fluo-8 AM loading buffer [calcium-free Tyrode (130 mM NaCl, 5 mM KCl, 20 mM HEPES, 1 mM MgCl2, 4.8 mM NaHCO3, pH 7.4), 2 mM CaCl2, 1× SmartBlock (from CANDOR Bioscience GmbH), 4.5 mM Probenecid, 5 μM Fluo-8 AM, 0.016% Pluronic, 0.04% Brilliant black] and incubated at 37° C./5% CO2 for 30 minutes. The test substance is prepared in DMSO in various concentrations as a dose-response curve (starting concentration 10 mM, dilution factor 3.16) and prediluted 1:50 with calcium-free Tyrode/2 mM CaCl2. 10 μl of the prediluted substance solution are added to the Fluo-8-laden cells and incubated at 37° C./5% CO2 for 10 minutes. […]. The format is cell-based. On the technique in general: Calcium assays in cells follow changes in intracellular calcium, usually with a dye or a luminescent sensor.

As usually defined, the pIC50 is the IC50 on a negative log10 scale, so that one unit is a factor of ten.

Structures are written as SMILES. pIC50: −log10 of the molar value.

Sequence of Prostaglandin F2-alpha receptor (P43088 whole entry): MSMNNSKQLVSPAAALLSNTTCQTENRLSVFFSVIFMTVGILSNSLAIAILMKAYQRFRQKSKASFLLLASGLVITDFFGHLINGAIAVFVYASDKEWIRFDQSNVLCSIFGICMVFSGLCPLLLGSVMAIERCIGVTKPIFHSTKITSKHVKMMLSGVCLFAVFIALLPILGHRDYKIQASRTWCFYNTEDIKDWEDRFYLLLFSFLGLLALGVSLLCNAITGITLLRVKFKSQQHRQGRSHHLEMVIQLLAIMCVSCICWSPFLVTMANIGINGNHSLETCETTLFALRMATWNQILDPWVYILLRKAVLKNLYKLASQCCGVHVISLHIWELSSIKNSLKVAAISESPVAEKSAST

With `Cc1c(-c2ccccc2)nc2ccc(C(C)(C)C)cc2c1C(=O)NC12CCC(C(=O)O)(CC1)CC2`, the pIC50 is 6.34.
